Entries after “also recorded” stand apart in the source; their conditions may differ.
Tests used:
[1] = tested on: sfGFP^151(AXC); assay: In vivo translation screen of XTPs/YTPs: protein shift (AzK incorporation) by DBCO-TAMRA western blot; assay type: cell-based, E. coli; settings: TPT3TP 30 μM, dCNMO-dTPT3 UBP, strain ML2
Experimental: (§1) In vivo Translation Screen of XTPs/YTPs. An overnight culture of the SSO strain ML2 carrying the pGEX-MbPylRS TetR plasmid was grown in 2×YT supplemented with 50 mM potassium phosphate, […] chloramphenicol and 100 μg/mL carbenicillin (herein referred to in this section as “media”), then diluted back to an OD600 of 0.03 in the same media and grown to an OD600 of 0.4 to 0.6. The culture was then chilled with shaking over ice-water for 15 minutes then pelleted by centrifugation at 3,200×g for 10 min. Cells were then resuspended and washed with ice-cold ddH2O twice then resuspended in ice-cold ddH2O to OD600 of 55-65. The electrocompetent cells (50 μL) and 1 ng of Golden Gate assembled plasmid with the UBP within the sfGFP and tRNAPyl genes (see Golden Gate Assembly of Plasmids) were transferred to a pre-chilled electroporation cuvette (0.2-cm-gap), then electroporated (Gene Pulser II; Bio-Rad) according to manufacturer's recommendations (voltage […], capacitor 2.5 μF, resistor 200Ω), and then immediately diluted with 950 μL of media. An aliquot (40 μL) of the transformation was then diluted five-fold in media supplemented with dCNMOTP (25 μM) and dTPT3TP (10 μM) for a final volume of 200 μL then allowed to recover for 1 h shaking at 37° C. Two-fold dilutions of the recovery were plated onto solid media supplemented with zeocin (50 μg/mL), dCNMOTP (10 μM), dTPT3TP (10 μM), and agar (2% w/v), then grown at 37° C. for 18 h. Single colonies were picked and grown in media (300 μL) supplemented with 50 μg/mL zeocin and provided dCNMOTP (25 μM) and dTPT3TP (10 μM) (herein afterward referred to in this section as “growth media”). The culture was monitored for cell growth (Envision 2103 Multilabel Plate Reader with a 590/20 nm filter) and then collected at an OD600˜1.0. An aliquot (50 μL) was subjected to plasmid isolation using the ZR Plasmid Prep Kit (Zymo Research). Isolated plasmids were then subjected to the streptavidin gel shift assay described below (using primers P3-4 and P5-6, Table S1) to determine UBP retention.
(§2) A colony with excellent UBP retention was then diluted to an OD600˜0.01 in growth media and grown to OD600˜0.4-0.6. This culture was then divided into multiple 300 μL cultures and for the screen of XTP analogs, each was provided with the corresponding XTP (at either 25 μM or 250 μM) or ddH2O for “−XTP” samples, TPT3TP (30 μM), and AzK (10 mM). For the screen of YTP analogs, each 300 μL culture was provided with the corresponding YTP (at either 25 μM or 250 μM) or ddH2O for “−YTP” samples, NaMTP (250 μM), and AzK (10 mM). Samples were shielded from light after addition of AzK to prevent photodegradation. These samples were then grown at 37° C. for 20 min before adding 1 mM IPTG and grown at 37° C. for an additional 1 h to induce T7 RNAP and transcription of tRNAPyl and PylRS. From this point on, cells were monitored for growth and fluorescence. Expression of sfGFP was then induced with anhydrotetracycline (100 ng/mL). After an additional 3 h of growth at 37° C., cells were collected (230 μL for affinity purification of sfGFP), cooled, and then pelleted and stored at −80° C. before protein purification.
Affinity Purification of sfGFP. Cell pellets collected from translation experiments were resuspended in BugBuster (100 μL 1×, EMD Millipore) and shaken at room temperature for 15 min. […]

[2] = tested on: E. coli strain ML2; assay: Cell growth (OD600) / toxicity of unnatural ribonucleoside triphosphates under ribonucleotide screening conditions; assay type: cell-based; settings: for OD600: after 3 h of protein induction; for Cell growth / toxicity: YTP at the higher concentration (250 μM)
Experimental: In vivo Translation Screen of XTPs/YTPs. An overnight culture of the SSO strain ML2 carrying the pGEX-MbPylRS TetR plasmid was grown in 2×YT supplemented with 50 mM potassium phosphate, […] chloramphenicol and 100 μg/mL carbenicillin (herein referred to in this section as “media”), then diluted back to an OD600 of 0.03 in the same media and grown to an OD600 of 0.4 to 0.6. The culture was then chilled with shaking over ice-water for 15 minutes then pelleted by centrifugation at 3,200×g for 10 min. Cells were then resuspended and washed with ice-cold ddH2O twice then resuspended in ice-cold ddH2O to OD600 of 55-65. The electrocompetent cells (50 μL) and 1 ng of Golden Gate assembled plasmid with the UBP within the sfGFP and tRNAPyl genes (see Golden Gate Assembly of Plasmids) were transferred to a pre-chilled electroporation cuvette (0.2-cm-gap), then electroporated (Gene Pulser II; Bio-Rad) according to manufacturer's recommendations (voltage […], capacitor 2.5 μF, resistor 200Ω), and then immediately diluted with 950 μL of media. […] Two-fold dilutions of the recovery were plated onto solid media supplemented with zeocin (50 μg/mL), dCNMOTP (10 μM), dTPT3TP (10 μM), and agar (2% w/v), then grown at 37° C. for 18 h. […] An aliquot (50 μL) was subjected to plasmid isolation using the ZR Plasmid Prep Kit (Zymo Research). Isolated plasmids were then subjected to the streptavidin gel shift assay described below (using primers P3-4 and P5-6, Table S1) to determine UBP retention.
Samples were shielded from light after addition of AzK to prevent photodegradation. These samples were then grown at 37° C. for 20 min before adding 1 mM IPTG and grown at 37° C. for an additional 1 h to induce T7 RNAP and transcription of tRNAPyl and PylRS. From this point on, cells were monitored for growth and fluorescence. Expression of sfGFP was then induced with anhydrotetracycline (100 ng/mL).
Examining the Toxicity of Ribonucleoside Triphosphates. An overnight culture of ML2 was grown in 2×YT media supplemented with 50 mM potassium phosphate and chloramphenicol (5 μg/mL), referred to throughout this section as “media”. This culture was diluted back to an OD600 of 0.01 split into multiple 300 μL cultures, each supplemented with varying concentrations of TPT3TP, TAT1TP, NaMTP, or 5FMTP, along with a no triphosphate control. The cultures were then incubated at 37° C. with shaking at 230 rpm. […] OD600 was then plotted as a function of time for each nucleotide at each concentration to visualize differences in growth rates.

[3] = tested on: sfGFP^151(AXC); assay: Optimization of unnatural ribonucleotide triphosphate concentrations (sfGFP fluorescence and protein shift); assay type: cell-based, E. coli
Experimental: Examples 1A, 1B, and 2 identified dCNMO-dTPT3 as a competent UBP for the storage of information, and TAT1TP and NaMTP or 5FMTP as competent ribonucleoside triphosphates for its retrieval. Upon transformation with the same plasmids used above, 10 μM dTPT3TP and 25 μM dCNMOTP were provided in the growth media, which was then also supplemented with TAT1TP at concentrations ranging from 100 μM to 12.5 μM, and either NaMTP or 5FMTP at concentrations ranging from 200 μM to 12.5 μM, all in series of 2-fold dilutions, and after the addition of 1 mM AzK, the cells were induced to express sfGFP. […] In both cases, fluorescence was higher at lower concentrations of NaMTP or 5FMTP (due to increased production of contaminating natural sfGFP, see below). Additionally, cells generally produced higher fluorescence at higher concentrations of TAT1TP. […] Protein production was again quantified via the gel shift assay (FIG. 6C and FIG. 6D). Generally, as the concentration of NaMTP decreased below 200 μM, incrementally lower fidelity of AzK incorporation into sfGFP was observed, while with use of 5FMTP this reduction in fidelity was only observed below a concentration of 50 μM. Clearly lower concentrations of 5FMTP can be used without compromising fidelity. Cells provided with a high concentration of 5FMTP (≥50 µM) produced high protein shifts at all concentrations of TAT1TP explored (100 μM, 50 μM, 25 μM, or 12.5 μM).
Optimization of in vivo Translation Conditions. An overnight culture of the SSO strain ML2 carrying the pGEX-MbPylRS TetR plasmid was grown in 2×YT supplemented with 50 mM potassium phosphate, […] chloramphenicol and 100 μg/mL carbenicillin (herein referred to in this section as “media”), then diluted back to an OD600 of 0.03 in the same media and grown to an OD600 of 0.4-0.6. The culture was then chilled with shaking over ice-water for 15 min then pelleted by centrifugation at 3,200×g for 10 min. Cells were then resuspended and washed with ice-cold ddH2O twice then resuspended in ice-cold ddH2O to an OD600 of 55-65. The electrocompetent cells (50 μL) and ˜1 ng of Golden Gate assembled plasmid with the UBP within the sfGFP and tRNAPyl genes (see Golden Gate Assembly of Plasmids) were transferred to a pre-chilled electroporation cuvette (0.2-cm-gap), then electroporated (Gene Pulser II; Bio-Rad) according to manufacturer's recommendations (voltage […], capacitor 2.5 μF, resistor 200Ω), and then immediately diluted with 950 μL of media. […] The culture was monitored for cell growth (Envision 2103 Multilabel Plate Reader with a 590/20 nm filter) and then collected at an OD600˜1.0. […]

[4] = tested on: sfGFP^151(AXC); assay: In vivo translation screen of XTPs/YTPs: total sfGFP fluorescence; assay type: cell-based, E. coli
Experimental: as §1, §2
An SAR analysis was initiated with NaMTP and the nine XTP analogs. Based on performance in the dXTP screen described above, and to eliminate variable loss at the DNA level as a complicating factor, the unnatural information was encoded with the dCNMO-dTPT3 UBP. Additionally, the E. coli strain ML2, which expresses the nucleoside triphosphate transporter PtNTT2, but has also been genetically engineered for higher fidelity replication of the UBP by deletion of the gene encoding RecA (as is common in cloning strains) and overexpression of DNA Pol II was used. The same plasmid described above in Examples 1A and 1, harboring sfGFP^151(AXC) and tRNA^Pyl(GYT), was used, and to focus the screen to a single unnatural ribonucleotide, the M. mazei Pyl tRNA was transcribed in the presence of 30 μM TPT3TP. […]

COc1ccc(F)cc1[C@@H]1O[C@H](COP(=O)(O)OP(=O)(O)OP(=O)(O)O)[C@@H](O)[C@H]1O [Compound 5F2OMeTP]
sfGFP protein gel shift (ncAA incorporation) ([1]; XTP 250 μM): 94%
OD600 ([2]; XTP 25 μM): 1.14 ± 0.05
OD600 ([2]; XTP 250 μM): 1.16 ± 0.07

COc1cc2ccccc2cc1[C@@H]1O[C@H](COP(=O)(O)OP(=O)(O)OP(=O)(O)O)[C@@H](O)[C@H]1O [NaMTP]
sfGFP protein gel shift (ncAA incorporation) ([1]; XTP 25 μM): 86%
sfGFP protein gel shift (ncAA incorporation) ([1]; XTP 250 μM): 98%
Concentration for combined optimization of protein purity and yield ([3]; NaMTP and TAT1TP pair): 200 µM
XTP concentration below which lower fidelity of AzK incorporation into sfGFP was observed ([3]; with TAT1TP 12.5-100 μM): 200 µM

O=P(O)(O)OP(=O)(O)OP(=O)(O)OC[C@H]1O[C@@H](n2ccc3ccccc3c2=S)[C@H](O)[C@@H]1O [SICSTP]
OD600 ([2]; YTP 25 μM): 1.25 ± 0.10
OD600 ([2]; YTP 250 μM): 0.90 ± 0.04
Cell growth / toxicity [2]: at least slightly toxic

O=P(O)(O)OP(=O)(O)OP(=O)(O)OC[C@H]1O[C@@H](n2ccc3ccsc3c2=S)[C@H](O)[C@@H]1O [TPT3TP]
Greater fluorescence than 5SICSTP ([4]; YTP 25 μM): 6 fold
Greater fluorescence than FSICSTP ([4]; YTP 25 μM): 5 fold
Greater fluorescence than SICSTP ([4]; YTP 25 μM): 2 fold
Protein production ([4]; YTP 25 μM): significant quantities of pure protein
sfGFP fluorescence relative to control without YTP ([4]; YTP 250 μM, NaMTP 250 μM): little fluorescence
Toxicity ([2]; YTP at lower concentrations (25 μM)): somewhat less toxic
Cell growth / toxicity [2]: significantly reduced cell growth; also recorded: at least slightly toxic

From patent US11879145B2, “Reagents and methods for replication, transcription, and translation in semi-synthetic organisms” (The Scripps Research Institute, priority 2019, dated 2024)
